Where a name gives a salt, the structure may show the parent alone. Read-outs that look alike come from different tables or passages of the source.
Assays:
[1] = molecular target: human JAK1 (a.a. 837-1142) (Homo sapiens, UniProt P23458); test: In vitro JAK kinase assay (HTRF, phosphorylation of biotinylated peptide), JAK1; type: biochemical
Description: Compounds herein were tested for inhibitory activity of JAK targets according to the following in vitro assay described in Park et al., Analytical Biochemistry 1999, 269, 94-104. The catalytic domains of human JAK1 (a.a. 837-1142) and JAK2 (a.a. 828-1132) with an N-terminal His tag were expressed using baculovirus in insect cells and purified. The catalytic activity of JAK1 and JAK2 was assayed by measuring the phosphorylation of a biotinylated peptide. The phosphorylated peptide was detected by homogenous time resolved fluorescence (HTRF). […] Reactions were carried out at room temperature for 1 hour and then stopped with 20 μL 45 mM EDTA, 300 nM SA-APC, 6 nM Eu-Py20 in assay buffer (Perkin Elmer, Boston, Mass.). Binding to the Europium labeled antibody took place for 40 minutes and HTRF signal was measured on a Fusion plate reader (Perkin Elmer, Boston, Mass.). […] Data is indicated as ranges, wherein “+” is less than 10 nM; “++” is 10 nM to 25 nM; “+++” is greater than 25 nM to 100 nM; and “++++” is greater than 100 nM. Greater than 25 nM to 100 nM specifies a range with a lower endpoint “at greater than 25 nM” and an upper endpoint at 100 nM.

[2] = molecular target: T1, JAK2 (a.a. 828-1132) (Homo sapiens, UniProt O60674); test: In vitro JAK kinase assay (HTRF, phosphorylation of biotinylated peptide), JAK2; type: biochemical
T1 construct: JAK2 (a.a. 828-1132); His tag (N)
Description: Compounds herein were tested for inhibitory activity of JAK targets according to the following in vitro assay described in Park et al., Analytical Biochemistry 1999, 269, 94-104. The catalytic domains of human JAK1 (a.a. 837-1142) and JAK2 (a.a. 828-1132) with an N-terminal His tag were expressed using baculovirus in insect cells and purified. The catalytic activity of JAK1 and JAK2 was assayed by measuring the phosphorylation of a biotinylated peptide. The phosphorylated peptide was detected by homogenous time resolved fluorescence (HTRF). […] Reactions were carried out at room temperature for 1 hour and then stopped with 20 μL 45 mM EDTA, 300 nM SA-APC, 6 nM Eu-Py20 in assay buffer (Perkin Elmer, Boston, Mass.). Binding to the Europium labeled antibody took place for 40 minutes and HTRF signal was measured on a Fusion plate reader (Perkin Elmer, Boston, Mass.). See Tables A-F for data related to compounds of the Examples (at 1 mM). Data is indicated as ranges, wherein “+” is less than 10 nM; “++” is 10 nM to 25 nM; “+++” is greater than 25 nM to 100 nM; and “++++” is greater than 100 nM. Greater than 25 nM to 100 nM specifies a range with a lower endpoint “at greater than 25 nM” and an upper endpoint at 100 nM.

[3] = read-out: JAK2 IC50 (nM) at 1 mM ATP, Table F
[4] = Table A, 1 mM ATP, read-out: JAK1 IC50
[5] = Table A, 1 mM ATP, read-out: JAK2 IC50
[6] = Table B, 1 mM ATP, read-out: JAK1 IC50
[7] = Table B, 1 mM ATP, read-out: JAK2 IC50

Sequence of human JAK1 (a.a. 837-1142) (P23458 849-1154): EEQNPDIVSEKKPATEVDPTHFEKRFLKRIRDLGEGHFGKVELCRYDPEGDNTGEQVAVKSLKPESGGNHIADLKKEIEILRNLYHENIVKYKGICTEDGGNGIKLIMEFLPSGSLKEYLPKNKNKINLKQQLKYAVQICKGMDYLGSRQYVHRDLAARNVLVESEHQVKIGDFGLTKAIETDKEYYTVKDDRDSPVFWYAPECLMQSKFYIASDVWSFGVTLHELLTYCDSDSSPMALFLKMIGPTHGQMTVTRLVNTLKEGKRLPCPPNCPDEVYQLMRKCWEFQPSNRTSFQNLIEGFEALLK
T1 sequence (O60674 828-1132): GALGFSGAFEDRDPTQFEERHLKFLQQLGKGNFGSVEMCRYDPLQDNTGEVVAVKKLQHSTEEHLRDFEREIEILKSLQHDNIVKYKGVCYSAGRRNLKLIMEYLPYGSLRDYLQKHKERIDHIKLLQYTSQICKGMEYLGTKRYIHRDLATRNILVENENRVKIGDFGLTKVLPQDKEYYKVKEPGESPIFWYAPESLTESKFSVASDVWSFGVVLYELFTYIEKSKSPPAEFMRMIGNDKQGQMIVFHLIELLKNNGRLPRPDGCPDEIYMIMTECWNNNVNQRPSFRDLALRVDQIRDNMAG

SMILES	IC50 [1, 4] [nM]	IC50 [2, 5] [nM]	IC50 [1, 6] [nM]	IC50 [2, 7] [nM]	further results
N#CCC1(n2cc(-c3ncnc4[nH]ccc34)cn2)CC(N2CCC(Oc3cc(CCO)nc(C(F)(F)F)n3)CC2)C1 (single isomer, unassigned; peak 1) [Example 164, peak 1, {trans-3-(4-{[6-(2-hydroxyethyl)-2-(trifluoromethyl)pyrimidin-4-yl]oxy}piperidin-1-yl)-1-[4-(7H-pyrrolo[2,3-d]pyrimidin-4-yl)-1H-pyrazol-1-yl]cyclobutyl}acetonitrile]					IC50 ([1]; read-out: JAK1 IC50 (nM) at 1 mM ATP, Table F, listed as 164, peak 1): 10 to 25 nM; IC50 [2, 3]: > 100 nM
N#CCC1(n2cc(-c3ncnc4[nH]ccc34)cn2)CC(N2CCC(Oc3cc(CCO)nc(C(F)(F)F)n3)CC2)C1 (single isomer, unassigned; peak 2) [Example 164, peak 2, {cis-3-(4-{[6-(2-hydroxyethyl)-2-(trifluoromethyl)pyrimidin-4-yl]oxy}piperidin-1-yl)-1-[4-(7H-pyrrolo[2,3-d]pyrimidin-4-yl)-1H-pyrazol-1-yl]cyclobutyl}acetonitrile]					IC50 ([1]; read-out: JAK1 IC50 (nM) at 1 mM ATP, Table F, listed as 164, peak 2): 25 to 100 nM; IC50 [2, 3]: > 100 nM
N#CC[C@]1(n2cc(-c3ncnc4[nH]ccc34)cn2)C[C@@H](N2CCN(Cc3cc(F)cc(C#N)c3)CC2)C1 [Example 1a, 3-[(4-{cis-3-(cyanomethyl)-3-[4-(7H-pyrrolo[2,3-d]pyrimidin-4-yl)-1H-pyrazol-1-yl]cyclobutyl}piperazin-1-yl)methyl]-5-fluorobenzonitrile]	< 10	> 100			
N#CC[C@]1(n2cc(-c3ncnc4[nH]ccc34)cn2)C[C@H](N2CCN(Cc3cc(F)cc(C#N)c3)CC2)C1 [Example 1b, 3-[(4-{trans-3-(cyanomethyl)-3-[4-(7H-pyrrolo[2,3-d]pyrimidin-4-yl)-1H-pyrazol-1-yl]cyclobutyl}piperazin-1-yl)methyl]-5-fluorobenzonitrile]			< 10	25 to 100	
CN(C)c1ccc(CN2CCN([C@H]3C[C@@](CC#N)(n4cc(-c5ncnc6[nH]ccc56)cn4)C3)CC2)c(F)c1C#N [Example 2a, 3-[(4-{cis-3-(cyanomethyl)-3-[4-(7H-pyrrolo[2,3-d]pyrimidin-4-yl)-1H-pyrazol-1-yl]cyclobutyl}piperazin-1-yl)methyl]-6-(dimethylamino)-2-fluorobenzonitrile]	< 10	25 to 100			
CN(C)c1ccc(CN2CCN([C@H]3C[C@](CC#N)(n4cc(-c5ncnc6[nH]ccc56)cn4)C3)CC2)c(F)c1C#N [Example 2b, 3-[(4-{trans-3-(cyanomethyl)-3-[4-(7H-pyrrolo[2,3-d]pyrimidin-4-yl)-1H-pyrazol-1-yl]cyclobutyl}piperazin-1-yl)methyl]-6-(dimethylamino)-2-fluorobenzonitrile]			< 10	25 to 100	
N#CC[C@]1(n2cc(-c3ncnc4[nH]ccc34)cn2)C[C@@H](N2CCN(C(=O)Nc3ccc(F)cc3C(F)(F)F)CC2)C1 [Example 3a, 4-{cis-3-(cyanomethyl)-3-[4-(7H-pyrrolo[2,3-d]pyrimidin-4-yl)-1H-pyrazol-1-yl]cyclobutyl}-N-[4-fluoro-2-(trifluoromethyl)phenyl]piperazine-1-carboxamide 2.4×(trifluoroacetate) Salt]	25 to 100	> 100			
N#CC[C@]1(n2cc(-c3ncnc4[nH]ccc34)cn2)C[C@H](N2CCN(C(=O)Nc3ccc(F)cc3C(F)(F)F)CC2)C1 [Example 3b, 4-{3-(cyanomethyl)-3-[4-(7H-pyrrolo[2,3-d]pyrimidin-4-yl)-1H-pyrazol-1-yl]cyclobutyl}-N-[4-fluoro-2-(trifluoromethyl)phenyl]piperazine-1-carboxamide 2.3×(trifluoroacetate) Salt]			10 to 25	> 100	
C[C@H]1CCCN1C(=O)N1CCN([C@H]2C[C@@](CC#N)(n3cc(-c4ncnc5[nH]ccc45)cn3)C2)CC1 [Example 4a, {cis-3-(4-{[(2S)-2-methylpyrrolidin-1-yl]carbonyl}piperazin-1-yl)-1-[4-(7H-pyrrolo[2,3-d]pyrimidin-4-yl)-1H-pyrazol-1-yl]cyclobutyl}acetonitrile]	25 to 100	> 100			
C[C@H]1CCCN1C(=O)N1CCN([C@H]2C[C@](CC#N)(n3cc(-c4ncnc5[nH]ccc45)cn3)C2)CC1 [Example 4b, {trans-3-(4-{[(2S)-2-methylpyrrolidin-1-yl]carbonyl}piperazin-1-yl)-1-[4-(7H-pyrrolo[2,3-d]pyrimidin-4-yl)-1H-pyrazol-1-yl]cyclobutyl}acetonitrile]			< 10	> 100	
CC[C@H]1CCCN1C(=O)N1CCN([C@H]2C[C@](CC#N)(n3cc(-c4ncnc5[nH]ccc45)cn3)C2)CC1 [Example 5, {trans-3-(4-{[(2S)-2-ethylpyrrolidin-1-yl]carbonyl}piperazin-1-yl)-1-[4-(7H-pyrrolo[2,3-d]pyrimidin-4-yl)-1H-pyrazol-1-yl]cyclobutyl}acetonitrile]			< 10	> 100	
N#CC[C@]1(n2cc(-c3ncnc4[nH]ccc34)cn2)C[C@@H](N2CCN(C(=O)c3ccnc(C(F)(F)F)c3F)CC2)C1 [Example 6a, {cis-3-{4-[3-fluoro-2-(trifluoromethyl)isonicotinoyl]piperazin-1-yl}-1-[4-(7H-pyrrolo[2,3-d]pyrimidin-4-yl)-1H-pyrazol-1-yl]cyclobutyl}acetonitrile]	10 to 25	> 100			
N#CC[C@]1(n2cc(-c3ncnc4[nH]ccc34)cn2)C[C@H](N2CCN(C(=O)c3ccnc(C(F)(F)F)c3F)CC2)C1 [Example 6b, {trans-3-{4-[3-fluoro-2-(trifluoromethyl)isonicotinoyl]piperazin-1-yl}-1-[4-(7H-pyrrolo[2,3-d]pyrimidin-4-yl)-1H-pyrazol-1-yl]cyclobutyl}acetonitrile]			< 10	25 to 100	
N#CC[C@]1(n2cc(-c3ncnc4[nH]ccc34)cn2)C[C@@H](N2CCN(C(=O)c3ccnc(C(F)(F)F)n3)CC2)C1 [Example 7a, [cis-1-[4-(7H-pyrrolo[2,3-d]pyrimidin-4-yl)-1H-pyrazol-1-yl]-3-(4-{[2-(trifluoromethyl)pyrimidin-4-yl]carbonyl}piperazin-1-yl)cyclobutyl]acetonitrile]	10 to 25	> 100			
N#CC[C@]1(n2cc(-c3ncnc4[nH]ccc34)cn2)C[C@H](N2CCN(C(=O)c3ccnc(C(F)(F)F)n3)CC2)C1 [Example 7b, [trans-1-[4-(7H-pyrrolo[2,3-d]pyrimidin-4-yl)-1H-pyrazol-1-yl]-3-(4-{[2-(trifluoromethyl)pyrimidin-4-yl]carbonyl}piperazin-1-yl)cyclobutyl]acetonitrile]			< 10	25 to 100	
N#CC[C@]1(n2cc(-c3ncnc4[nH]ccc34)cn2)C[C@@H](N2CCN(C(=O)c3cc(F)cc(F)c3)CC2)C1 [Example 8a, {cis-3-[4-(3,5-difluorobenzoyl)piperazin-1-yl]-1-[4-(7H-pyrrolo[2,3-d]pyrimidin-4-yl)-1H-pyrazol-1-yl]cyclobutyl}acetonitrile]	< 10	25 to 100			
N#CC[C@]1(n2cc(-c3ncnc4[nH]ccc34)cn2)C[C@H](N2CCN(C(=O)c3cc(F)cc(F)c3)CC2)C1 [Example 8b, {trans-3-[4-(3,5-difluorobenzoyl)piperazin-1-yl]-1-[4-(7H-pyrrolo[2,3-d]pyrimidin-4-yl)-1H-pyrazol-1-yl]cyclobutyl}acetonitrile]			< 10	< 10	
N#CC[C@]1(n2cc(-c3ncnc4[nH]ccc34)cn2)C[C@@H](N2CCN(C(=O)c3cc(F)cnc3Cl)CC2)C1 [Example 9a, {cis-3-{4-[(2-chloro-5-fluoropyridin-3-yl)carbonyl]piperazin-1-yl}-1-[4-(7H-pyrrolo[2,3-d]pyrimidin-4-yl)-1H-pyrazol-1-yl]cyclobutyl}acetonitrile]	10 to 25	> 100			

Reference: US10640506B2, “Cyclobutyl substituted pyrrolopyridine and pyrrolopyrimidines derivatives as JAK inhibitors” (Incyte Corporation, priority 2010, dated 2020)
